In ChEMBL document CHEMBL1201861, “Genomics of Drug Sensitity in Cancer screening data, Wellcome Trust Sanger Institute”:

Experiments:
DMS-53 = assay: cells; assay type: functional, cell-based; conditions: Homo sapiens;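 note: cell viability assay measuring growth inhibition of human DMS-53 cells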
Description: SANGER: Inhibition of human DMS-53 cell growth in a cell viability assay.

DV-90 = assay: cells; assay type: functional, cell-based; conditions: Homo sapiens;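 note: Read-out is a viability assay, with IC50 reflecting the drop in DV-90 cell growth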
Description: SANGER: Inhibition of human DV-90 cell growth in a cell viability assay.

RERF-LC-MS = assay: cells; assay type: functional, cell-based; conditions: Homo sapiens;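 note: growth inhibition of human RERF-LC-MS cells, read out by a cell viability assay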
Description: SANGER: Inhibition of human RERF-LC-MS cell growth in a cell viability assay.

HCC38 = assay: cells; assay type: functional, cell-based; conditions: Homo sapiens;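 note: cell viability assay on the human HCC38 cell line, with IC50 marking the concentration that inhibits cell growth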
Description: SANGER: Inhibition of human HCC38 cell growth in a cell viability assay.

647-V = assay: cells; assay type: functional, cell-based; conditions: Homo sapiens;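 note: growth inhibition of 647-V cells, read out with a cell viability assay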
Description: SANGER: Inhibition of human 647-V cell growth in a cell viability assay.

MKN-7 = assay: cells; assay type: functional, cell-based; conditions: Homo sapiens;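 note: growth inhibition of MKN-7 cells, read out with a cell viability assay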
Description: SANGER: Inhibition of human MKN7 cell growth in a cell viability assay.

AN3-CA = assay: cells; assay type: functional, cell-based; conditions: Homo sapiens;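 note: growth inhibition of human AN3-CA cells measured by a cell viability assay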
Description: SANGER: Inhibition of human AN3-CA cell growth in a cell viability assay.

EFE-184 = assay: cells; assay type: functional, cell-based; conditions: Homo sapiens
Description: SANGER: Inhibition of human EFE-184 cell growth in a cell viability assay.

SNU-475 = assay: cells; assay type: functional, cell-based; conditions: Homo sapiens
Description: SANGER: Inhibition of human SNU-475 cell growth in a cell viability assay.

NCI-H2081 = assay: cells; assay type: functional, cell-based, Homo sapiens; conditions: Homo sapiens, NCI-H2081;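 note: growth inhibition of human NCI-H2081 cells, read out with a cell viability assay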
Description: SANGER: Inhibition of human NCI-H2081 cell growth in a cell viability assay.

BL-41 = assay: cells; assay type: functional, cell-based; conditions: Homo sapiens;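 note: growth inhibition of human BL-41 cells, read out with a cell viability assay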
Description: SANGER: Inhibition of human BL-41 cell growth in a cell viability assay.

VMRC-RCZ = assay: cells; assay type: functional, cell-based; conditions: Homo sapiens
Description: SANGER: Inhibition of human VMRC-RCZ cell growth in a cell viability assay.

8505C = assay: cells; assay type: functional, cell-based; conditions: Homo sapiens
Description: SANGER: Inhibition of human 8505C cell growth in a cell viability assay.

BT-20 = assay: cells; assay type: functional, cell-based; conditions: Homo sapiens;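 note: cell viability assay measuring suppression of growth in human BT-20 cells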
Description: SANGER: Inhibition of human BT-20 cell growth in a cell viability assay.

NCI-H322M = assay: cells; assay type: functional, cell-based, Homo sapiens; conditions: Homo sapiens, NCI-H322M;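 note: cell viability assay measuring inhibition of growth of human NCI-H322M cells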
Description: SANGER: Inhibition of human NCI-H322M cell growth in a cell viability assay.

BFTC-909 = assay: cells; assay type: functional, cell-based; conditions: Homo sapiens
Description: SANGER: Inhibition of human BFTC-909 cell growth in a cell viability assay.

EGI-1 = assay: cells; assay type: functional, cell-based; conditions: Homo sapiens;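 note: cell viability readout used to gauge growth inhibition of EGI-1 cells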
Description: SANGER: Inhibition of human EGI-1 cell growth in a cell viability assay.

MDA-MB-453 = assay: cells; assay type: functional, cell-based; conditions: Homo sapiens
Description: SANGER: Inhibition of human MDA-MB-453 cell growth in a cell viability assay.

LCLC-97TM1 = assay: cells; assay type: functional, cell-based; conditions: Homo sapiens;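 note: cell viability assay measuring growth inhibition of human LCLC-97TM1 cells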
Description: SANGER: Inhibition of human LCLC-97TM1 cell growth in a cell viability assay.

P12-Ichikawa = assay: cells; assay type: functional, cell-based; conditions: Homo sapiens
IGROV-1 = assay: cells; assay type: functional, cell-based; conditions: Homo sapiens;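 note: reduction of IGROV-1 cell growth, read out with a viability assay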
Description: SANGER: Inhibition of human IGROV-1 cell growth in a cell viability assay.

NCI-H2141 = assay: cells; assay type: functional, cell-based, Homo sapiens; conditions: Homo sapiens, NCI-H2141;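 note: growth inhibition of human NCI-H2141 cells, read out with a cell viability assay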
Description: SANGER: Inhibition of human NCI-H2141 cell growth in a cell viability assay.

IPC-298 = assay: SANGER: Inhibition of human IPC-298 cell growth in a cell viability assay.; assay type: functional, cell-based
CAL-33 = assay: cells; assay type: functional, cell-based; conditions: Homo sapiens;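 note: growth inhibition of CAL-33 cells, read out with a cell viability assay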
Description: SANGER: Inhibition of human CAL-33 cell growth in a cell viability assay.

MCF7 = assay: cells; assay type: functional, cell-based; conditions: Homo sapiens;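 note: growth inhibition of human MCF7 cells, read out with a cell viability assay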
Description: SANGER: Inhibition of human MCF7 cell growth in a cell viability assay.

U-118-MG = assay: cells; assay type: functional, cell-based; conditions: Homo sapiens
Description: SANGER: Inhibition of human U-118-MG cell growth in a cell viability assay.

CAKI-1 = assay: cells; assay type: functional, cell-based; conditions: Homo sapiens;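 note: growth inhibition of CAKI-1 cells, measured by a cell viability assay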
Description: SANGER: Inhibition of human CAKI-1 cell growth in a cell viability assay.

HCC1395 = assay: cells; assay type: functional, cell-based; conditions: Homo sapiens;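 note: growth inhibition of HCC1395 cells, read out by a cell viability assay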
Description: SANGER: Inhibition of human HCC1395 cell growth in a cell viability assay.

CAL-54 = assay: cells; assay type: functional, cell-based; conditions: Homo sapiens;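 note: growth inhibition of CAL-54 cells, read out by a viability measurement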
Description: SANGER: Inhibition of human CAL-54 cell growth in a cell viability assay.

CA46 = assay: cells; assay type: functional, cell-based, Homo sapiens; conditions: Homo sapiens, CA46;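 note: growth inhibition of human CA46 cells, read out by a cell viability assay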
Description: SANGER: Inhibition of human CA46 cell growth in a cell viability assay.

MDA-MB-175-VII = assay: cells; assay type: functional, cell-based; conditions: Homo sapiens
NCI-H1563 = assay: cells; assay type: functional, cell-based; conditions: Homo sapiens;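 note: growth inhibition of human NCI-H1563 cells, read out with a cell viability assay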
Description: SANGER: Inhibition of human NCI-H1563 cell growth in a cell viability assay.

ME-180 = assay: cells; assay type: functional, cell-based; conditions: Homo sapiens;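 note: cell viability assay measuring growth inhibition of ME-180 cells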
Description: SANGER: Inhibition of human ME-180 cell growth in a cell viability assay.

YAPC = assay: cells; assay type: functional, cell-based; conditions: Homo sapiens;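 note: growth inhibition of YAPC cells, measured with a cell viability assay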
Description: SANGER: Inhibition of human YAPC cell growth in a cell viability assay.

NCI-H1734 = assay: cells; assay type: functional, cell-based; conditions: Homo sapiens;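 note: growth inhibition of human NCI-H1734 cells, read out with a cell viability assay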
Description: SANGER: Inhibition of human NCI-H1734 cell growth in a cell viability assay.

SJRH30 = assay: cells; assay type: functional, cell-based; conditions: Homo sapiens;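 note: growth inhibition of human SJRH30 cells, read out with a cell viability assay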
Description: SANGER: Inhibition of human SJRH30 cell growth in a cell viability assay.

MEL-JUSO = assay: cells; assay type: functional, cell-based; conditions: Homo sapiens;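 note: growth inhibition of human MEL-JUSO cells, read out with a cell viability assay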
Description: SANGER: Inhibition of human MEL-JUSO cell growth in a cell viability assay.

CMK = assay: cells; assay type: functional, cell-based, Homo sapiens; conditions: Homo sapiens, CMK;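 note: growth inhibition of CMK cells, read out as cell viability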
Description: SANGER: Inhibition of human CMK cell growth in a cell viability assay.

SKG-IIIa = assay: cells; assay type: functional, cell-based; conditions: Homo sapiens;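 note: cell growth inhibition, read out with a cell viability assay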
Description: SANGER: Inhibition of human SKG-IIIa cell growth in a cell viability assay.

CAL-148 = assay: cells; assay type: functional, cell-based, Homo sapiens; conditions: Homo sapiens, CAL-148
Description: SANGER: Inhibition of human CAL-148 cell growth in a cell viability assay.

OAW-42 = assay: cells; assay type: functional, cell-based; conditions: Homo sapiens;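 note: growth inhibition of OAW-42 cells, read out with a cell viability assay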
Description: SANGER: Inhibition of human OAW-42 cell growth in a cell viability assay.

A-427 = assay: cells; assay type: functional, cell-based; conditions: Homo sapiens;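 note: growth inhibition of human A-427 cells, read out by a cell viability assay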
Description: SANGER: Inhibition of human A427 cell growth in a cell viability assay.

DK-MG = assay: cells; assay type: functional, cell-based; conditions: Homo sapiens;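 note: growth inhibition of DK-MG cells, read out with a cell viability assay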
Description: SANGER: Inhibition of human DK-MG cell growth in a cell viability assay.

CCF-STTG1 = assay: cells; assay type: functional, cell-based; conditions: Homo sapiens;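 note: growth inhibition of human CCF-STTG1 cells, determined with a cell viability read-out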
Description: SANGER: Inhibition of human CCF-STTG1 cell growth in a cell viability assay.

TT = assay: cells; assay type: functional, cell-based; conditions: Homo sapiens
Description: SANGER: Inhibition of human TT cell growth in a cell viability assay.

EW-7 = assay: SANGER: Inhibition of human EW-7 cell growth in a cell viability assay.; assay type: functional, cell-based
HuP-T3 = assay: cells; assay type: functional, cell-based; conditions: Homo sapiens;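 note: HuP-T3 cell growth inhibition, read out with a cell viability assay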
Description: SANGER: Inhibition of human HuP-T3 cell growth in a cell viability assay.

MES-SA = assay: cells; assay type: functional, cell-based; conditions: Homo sapiens;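 note: growth inhibition of human MES-SA cells, read out with a cell viability assay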
Description: SANGER: Inhibition of human MES-SA cell growth in a cell viability assay.

With `CCCCCCCCCCCC1=C(O)C(=O)C=C(O)C1=O` [EMBELIN] the IC50 (DMS-53) was 15.5 µM, the IC50 (DV-90) was 29.9 µM and the IC50 (RERF-LC-MS) was 30.6 µM. For the same compound, the IC50 (HCC38) was 17.9 µM, the IC50 (647-V) was 24.5 µM and the IC50 (MKN-7) was over 32 µM. It also gave an IC50 (AN3-CA) of 6.25 µM, an IC50 (EFE-184) of 26.1 µM and an IC50 (SNU-475) of over 32 µM. The IC50 (NCI-H2081) was over 32 µM, the IC50 (BL-41) was 5.5 µM and the IC50 (VMRC-RCZ) was 9.47 µM. For the same compound, the IC50 (8505C) was 14.1 µM, the IC50 (BT-20) was 14.5 µM and the IC50 (NCI-H322M) was over 32 µM. It also gave an IC50 (BFTC-909) of over 32 µM, an IC50 (EGI-1) of 23.1 µM and an IC50 (MDA-MB-453) of over 32 µM. The IC50 (LCLC-97TM1) was 5.96 µM, the IC50 (P12-Ichikawa) was 9.45 µM and the IC50 (IGROV-1) was 5.64 µM. The IC50 (NCI-H2141) was 26.8 µM, the IC50 (IPC-298) was 13.4 µM and the IC50 (CAL-33) was 22.9 µM. It also gave an IC50 (MCF7) of 8.35 µM, an IC50 (U-118-MG) of 29.1 µM and an IC50 (CAKI-1) of over 32 µM. It also gave an IC50 (HCC1395) of over 32 µM, an IC50 (CAL-54) of 20.4 µM and an IC50 (CA46) of 18.7 µM. For the same compound, the IC50 (MDA-MB-175-VII) was over 32 µM, the IC50 (NCI-H1563) was over 32 µM and the IC50 (ME-180) was 30.6 µM. The IC50 (YAPC) was over 32 µM, the IC50 (NCI-H1734) was 15 µM and the IC50 (SJRH30) was 7.97 µM. It also gave an IC50 (MEL-JUSO) of 7.85 µM, an IC50 (CMK) of 10.7 µM and an IC50 (SKG-IIIa) of over 32 µM. It also gave an IC50 (CAL-148) of over 32 µM, an IC50 (OAW-42) of over 32 µM and an IC50 (A-427) of over 32 µM. For the same compound, the IC50 (DK-MG) was over 32 µM, the IC50 (CCF-STTG1) was 14 µM and the IC50 (TT) was 23.5 µM. It also gave an IC50 (EW-7) of 23.2 µM, an IC50 (HuP-T3) of over 32 µM and an IC50 (MES-SA) of 16.5 µM.
